What all share (format): cell-based
Assay [1] relates to HEK293 clonal cell line overexpressing APOL1 G1. Briefly: APOL1 G1 HEK293 cell rescue assay (Example B3). The note with it: geometric mean of at least 2 runs, † = single run, ¥ = concentration at 50% rescue estimated (no sigmoidal curve). In a few lines:
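Rescue of cell death caused by APOL1 G1 overexpression was measured in a clonal HEK293 line. Compounds were tested in duplicate on one plate, and EC50s were geometric means across at least two runs on different days. Some values are estimated 50%-rescue concentrations where curve fitting failed.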

Assay [2] deals with HEK293 cells overexpressing APOL1 G2. Briefly: APOL1 G2 HEK293 cell rescue assay (reversal of cell death caused by overexpression of APOL1). The note with it: geometric mean of at least 2 assay runs, † = single assay run. In a few lines: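 Each compound tested in duplicate wells on one plate per run, with values usually the geometric mean across at least two runs on different days, occasionally from one run only. Read-out: concentration giving half-maximal rescue of APOL1 G2 overexpression-induced death of HEK293 cells.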

The next assay concerns the target T1, APOL1 G2 (Homo sapiens, UniProt O14791, DEL388-389).
T1 construct: expressed in transfected cells; host or cells: HEK293 T-REx clonal line stably expressing GCaMP6f (HEK T-REx/GCaMP6f/APOL1 G2 K6.3), doxycycline induced
T1 sequence (O14791 with tags, fused parts or gaps DEL388-389): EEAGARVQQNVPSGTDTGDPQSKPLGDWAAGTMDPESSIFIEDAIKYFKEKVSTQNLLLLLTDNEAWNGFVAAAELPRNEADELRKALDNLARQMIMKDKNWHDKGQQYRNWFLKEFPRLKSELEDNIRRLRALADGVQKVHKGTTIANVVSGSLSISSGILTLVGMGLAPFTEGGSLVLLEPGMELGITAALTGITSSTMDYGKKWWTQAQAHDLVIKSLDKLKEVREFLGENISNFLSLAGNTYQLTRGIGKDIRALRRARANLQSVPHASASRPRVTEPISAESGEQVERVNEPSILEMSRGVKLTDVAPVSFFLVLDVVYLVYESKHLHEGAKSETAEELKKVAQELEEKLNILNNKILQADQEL
Briefly: APOL1-mediated calcium transport (calcium influx) assay, HEK T-REx/GCaMP6f/APOL1 G2 K6.3 cells, FLIPR TETRA. The note with it: prevention of calcium influx; geometric mean of at least 2 assay runs; † = average of a technical replicate from a single assay run. Here is the method: A HEK293 clonal cell line was generated to stably express GCaMP6f, a genetically encoded calcium indicator, and inducibly express APOL1 G2 (HEK T-REx/GCaMP6f/APOL1 G2 K6.3). Cells were maintained in the following standard complete medium: DMEM with 4.5 g/L glucose and sodium pyruvate (BioWhittaker, Lonza, BE12-614F), supplemented with 10% FBS Performance Plus (Gibco, 16000044), 1% penicillin-streptomycin (BioWhittaker, DE17-602E), 2 mM ultraglutamine-1 (BioWhittaker cat. BE 17-605/U1), 50 μg/mL Zeocin (InvivoGen, ant-zn), 2.5 μg/mL Blasticidin (InvivoGen, ant-bl-5), and 25 μg/mL Hygromycin (InvivoGen, ant-hg). Standard propagation conditions consisted of plating 9×10^6, 4×10^6, 2×10^6 cells in a T225 flasks to be processed after 2, 3, or 4 days, respectively.
A source plate was generated containing 20 serially diluted compounds in DMSO (duplicate 8-point dose response). Next, 0.8 μL of compounds were transferred from the source plate to a destination plate prefilled with 79.2 μL of Ca^2+ free Tyrode's buffer (130 mM NaCl, 5 mM KCl, 1 mM MgCl2, 5 mM NaHCO3, 20 mM HEPES at pH 7.4). The destination plate was placed on a plate shaker (5 seconds at 2000 rpm) to mix. […] All transfer and mixing steps were conducted with an CyBi®-Well dispenser.
Cells were split by gently washing with DPBS (Euroclone, ECB4004L), followed by a 5-minute incubation (humidified, 37° C. with 5% CO2) with trypsin-EDTA solution (Euroclone, ECB3052D). Detached cells were diluted with standard complete medium without selective agents, counted, and plated in a 384 MTP microplate (GR4332CPL, Twin Helix) (10,000 cells/well in 25 μl/well) using a MATRIX WellMate dispenser. Plates were placed into a humidified incubator (37° C. with 5% CO2) overnight. The following day, 20 μL of doxycycline (Sigma, D9891) at 20 ng/mL in standard complete medium was added to cells with a CyBi® Drop dispenser to induce APOL1 G2 expression. After a 6-hour incubation (humidified, 37° C. with 5% CO2), cells were washed 3 times with Ca^2+ free Tyrode's Buffer (130 mM NaCl, 5 mM KCl, 1 mM MgCl2, 5 mM NaHCO3, 20 mM HEPES at pH 7.4) using a BIOTEK Microplate washer, such that 10 μL of buffer remained in each well after the final wash. Assay plates were then stored at room temperature for 10 minutes. Next, 10 μL of diluted compounds were transferred to the assay plate from the 2× compound plate using a CyBi®-Well dispenser. Compound incubation was then carried out at room temperature for 10 minutes. The assay plate was transferred to the FLIPR^TETRA and 20 μL of 10 mM Ca^2+ (final concentration=5 mM) Tyrode's buffer was injected.
Unless otherwise specified, AC50 and values are reported as the geometric mean of at least 2 assay runs on separate days. Each run represents the average of a technical replicate, where each compound was assayed twice in the same plate. A superscript t symbol indicates a value from the average of a technical replicate from a single assay run, where each compound was assayed twice in the same plate.
The AC50 values in Table 39 below reflect the compound's ability to prevent calcium influx by inhibiting APOL1. […] Compounds in Table 39 are referred to by the corresponding Compound Number in Table 1, which is also referred to in the synthetic examples. When one or more of the numbered compounds are identified by stereochemistry (for example, (R)- or (S)-), the specific stereoisomer for which data is provided in Table 39 may be identified by the elution order of such compound as described in the synthetic examples. For example, Compounds 39 and 40 are associated with Step 5 of Example 13, where Compound 39 is the first eluting enantiomer, and Compound 40 is the second eluting enantiomer in the chiral separation of Compound 38. For Table 39 below, n/a represents “not available”.

[3] abbreviates: HEK293 clonal line overexpressing APOL1 G1.
Setting [4] is: Homo sapiens, HEK293, HEK293 clonal line overexpressing APOL1 G1.
Setting [5] is: Homo sapiens, HEK293, HEK293 overexpressing APOL1 G2.

SMILES strings stand for the structures.

The term EC50 denotes the concentration giving half of the maximal effect. The AC50 is the concentration giving half of the maximal activity seen. On to `CC(COc1ccc2c(c1)CCC(=O)N2C)N1CCC2(CC1)C(=O)Nc1ccc(C#N)cc12` (single isomer, unassigned) [Compound 204, (R) or (S)-1′-{1-[(1-methyl-2-oxo-1,2,3,4-tetrahydroquinolin-6-yl)oxy]propan-2-yl}-2-oxo-1,2-dihydrospiro[indole-3,4′-piperidine]-5-carbonitrile], for which the results for the half-maximal effective concentration (EC50) in assay [1] (setting [3]) and in assay [2] (HEK293 overexpressing APOL1 G2) were 1270 nM and 1550 nM, respectively. Moreover, the AC50 at APOL1 G2 came out at 869 nM.

On to `CC(COc1ccc(S(C)(=O)=O)cc1)N1CCC2(CC1)C(=O)N(C1CC(O)C1)c1ccc(Cl)cc12` (single isomer, unassigned) [Compound 208, 5-chloro-1′-[(2R) or (2S)-1-(4-methanesulfonylphenoxy)propan-2-yl]-1-[(cis) or (trans)-3-hydroxycyclobutyl]-1,2-dihydrospiro[indole-3,4′-piperidin]-2-one], for which the concentration giving a half-maximal response (EC50) was 554 nM in assay [1] (setting [3]) and 238 nM in assay [2] (HEK293 overexpressing APOL1 G2). For the same compound, the AC50 at APOL1 G2 worked out at 1550 nM.

As to `CC(COc1ccc(S(C)(=O)=O)cc1)N1CCC2(CC1)C(=O)N(C1CC(O)C1)c1ccc(Cl)cc12` (single isomer, unassigned) [Compound 209, 5-chloro-1′-[(2R) or (2S)-1-(4-methanesulfonylphenoxy)propan-2-yl]-1-[(trans) or (cis)-3-hydroxycyclobutyl]-1,2-dihydrospiro[indole-3,4′-piperidin]-2-one], the values for the concentration giving a half-maximal response (EC50) in assay [1] (setting [3]) and in assay [2] (HEK293 overexpressing APOL1 G2) were greater than 2840 nM and 3070 nM, respectively. Moreover, at APOL1 G2, the AC50 amounted to 1240 nM.

Regarding `C[C@@H](COc1cc(F)c(S(C)(=O)=O)c(F)c1)N1CCC2(CC1)C(=O)Nc1ccc(C#N)cc12` (single isomer, unassigned) [Compound 213], the EC50 in assay [1] (setting [4]) was 497 nM; in assay [2] (setting [5]), 189 nM. For the same compound, the AC50 at APOL1 G2 amounted to 1120 nM.

On to `CS(=O)(=O)c1ccc(OCCN2CCC3(CC2)C(=O)Nc2ccc(C#N)cc23)cc1C(F)CF` (single isomer, unassigned) [Compound 222, 1′-(2-{3-[(1R or 1S)-1,2-difluoroethyl]-4-methanesulfonyl-phenoxy}ethyl)-2-oxo-1,2-dihydrospiro[in-dole-3,4′-piperidine]-5-carbonitrile], for which the figures for the EC50 in assay [1] (setting [3]) and in assay [2] (HEK293 overexpressing APOL1 G2) were 605 nM and 141 nM, respectively. Moreover, the half-maximal activity concentration (AC50) on APOL1 G2 stood at 783 nM.

On to `CC(COc1ccc(C2(S(C)(=O)=O)COC2)cc1)N1CCC2(CC1)C(=O)Nc1ccc(C#N)cc12` (single isomer, unassigned) [Compound 264, (R) or (S)-1′-{1-[4-(3-methanesulfonyloxetan-3-yl)phenoxy]propan-2-yl}-2-oxo-1,2-dihydrospiro[indole-3,4′-piperidine]-5-carbonitrile], for which the EC50 in assay [1] (setting [3]) was roughly 10000 nM; in assay [2] (HEK293 overexpressing APOL1 G2), 2250 nM. The concentration at half-maximal activity (AC50) on APOL1 G2 came to 1950 nM.

As for `C[C@]1(O)C[C@@H](n2ncc3cc(OCCN4CCC5(CC4)C(=O)Nc4ccc(C#N)cc45)cnc32)C1` (single isomer, unassigned) [Compound 437, 2-oxo-1′-[2-({1-[(cis)-3-hydroxy-3-methylcyclobutyl]-1H-pyrazolo[3,4-b]pyridin-5-yl}oxy)ethyl]-1,2-dihydrospiro[indole-3,4′-piperidine]-5-carbonitrile], the EC50 in assay [1] (setting [4]) is 186 nM; in assay [2] (setting [5]), 112 nM. In addition, the AC50 on APOL1 G2 came to 612 nM.

Take `CS(=O)(=O)c1ccc(OCCN2CCC3(CC2)C(=O)Nc2c(Cl)cc(Cl)cc23)cc1` [Compound 7, 5,7-dichloro-1′-[2-(4-methanesulfonylphenoxy)ethyl]-1,2-dihydrospiro[indole-3,4′-piperidin]-2-one]: the EC50 is 764 nM in assay [1] (setting [4]) and 279 nM in assay [2] (setting [5]). Also, at APOL1 G2, the AC50 was determined as 601 nM.

For the compound `CS(=O)(=O)c1ccc(OCCN2CCC3(CC2)C(=O)Nc2c(Cl)cc(C#N)cc23)cc1` [Compound 8, 7-chloro-1′-[2-(4-methanesulfonylphenoxy)ethyl]-2-oxo-1,2-dihydrospiro[indole-3,4′-piperidine]-5-carbonitrile], the EC50 is 1440 nM in assay [1] (setting [4]) and 598 nM in assay [2] (setting [5]). Further, the half-maximal activity concentration (AC50) on APOL1 G2 is 833 nM.

For the compound `CS(=O)(=O)c1ccc(OCCN2CCC3(CC2)C(=O)N([C@H]2C[C@@H](O)C2)c2ccccc23)cc1` [Compound 19, 1′-[2-(4-methanesulfonylphenoxy)ethyl]-1-[(cis)-3-hydroxycyclobutyl]-1,2-dihydrospiro[indole-3,4′-piperidin]-2-one], the values for the EC50 in assay [1] (setting [4]) and in assay [2] (setting [5]) were 4810 nM and 794 nM, respectively. In addition, on APOL1 G2, the concentration at half-maximal activity (AC50) was 481 nM.

For the compound `COCCN1C(=O)C2(CCN(CCOc3ccc(S(C)(=O)=O)cc3)CC2)c2ccccc21` [Compound 21, 1′-[2-(4-methanesulfonylphenoxy)ethyl]-1-(2-methoxyethyl)-1,2-dihydrospiro[indole-3,4′-piperidin]-2-one], the EC50 was greater than 14400 nM in assay [1] (setting [4]) and 1270 nM in assay [2] (setting [5]). Further, the AC50 on APOL1 G2 is less than 213 nM.

With `CS(=O)(=O)c1ccc(OCCN2CCC3(CC2)C(=O)N(C2COC2)c2ccc(Cl)cc23)cc1` [Compound 22, 5-chloro-1′-(2-(4-(methylsulfonyl)phenoxy)ethyl)-1-(oxetan-3-yl)spiro[indoline-3,4′-piperidin]-2-one], the EC50 was 580 nM in assay [1] (setting [4]) and 232 nM in assay [2] (setting [5]). The half-maximal activity concentration (AC50) on APOL1 G2 is 306 nM.

As to `CC(COc1ccc(S(C)(=O)=O)cc1)N1CCC2(CC1)C(=O)Nc1ccccc12` (stereo not drawn) [Compound 28, 1′-(1-(4-(methylsulfonyl)phenoxy)propan-2-yl)spiro[indoline-3,4′-piperidin]-2-one], the values for the EC50 in assay [1] (setting [4]) and in assay [2] (setting [5]) were 655 nM and 799 nM, respectively. In addition, the AC50 on APOL1 G2 was less than 434 nM.

These data come from patent publication US12344610B2, “APOL1 inhibitors and methods of use” (Maze Therapeutics, Inc., priority 2022, dated 2025).
